Experimental data as given in patent US8912186B2, “Allosteric protein kinase modulators” (Universitaet des Saarlandes, priority 2008, dated 2014).

Columns and labels:
Format in all cases: biochemical
PDK1 = molecular target: T1, PDK1 (Homo sapiens, UniProt O15530); assay: cell-free kinase activity assay (ATPgamma[32P], T308tide substrate); conditions: for AC50 / AC50 PDK1 (μM): concentration of the compound required to activate half maximally; for AC50 / max. activation of PDK1 (fold) / AC50 PDK1 (μM): n.e.: no effect; for max. activation of PDK1 (fold): maximum activation achievable, compared to the basal activity of PDK1
T1 construct: GST
T1 sequence (O15530 1-556): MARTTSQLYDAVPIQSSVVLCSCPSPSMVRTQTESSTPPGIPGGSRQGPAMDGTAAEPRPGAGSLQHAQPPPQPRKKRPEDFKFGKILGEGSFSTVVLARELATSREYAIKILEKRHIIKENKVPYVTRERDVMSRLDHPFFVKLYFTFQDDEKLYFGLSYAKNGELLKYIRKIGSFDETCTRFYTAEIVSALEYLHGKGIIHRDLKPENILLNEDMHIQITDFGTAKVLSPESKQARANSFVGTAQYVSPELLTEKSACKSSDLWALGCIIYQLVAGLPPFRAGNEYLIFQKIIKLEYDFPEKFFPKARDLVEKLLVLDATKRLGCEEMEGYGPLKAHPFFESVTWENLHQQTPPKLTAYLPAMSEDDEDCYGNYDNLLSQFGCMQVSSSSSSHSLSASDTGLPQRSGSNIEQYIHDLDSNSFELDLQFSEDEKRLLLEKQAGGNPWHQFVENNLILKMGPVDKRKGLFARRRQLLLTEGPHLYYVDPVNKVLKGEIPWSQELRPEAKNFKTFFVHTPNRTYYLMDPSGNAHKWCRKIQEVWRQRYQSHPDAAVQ
Source text: Principle of the cell-free kinase activity assay: In general, the activity of the compounds as protein kinase inhibitors or activators may be assayed in vitro (cell free assay is meant here), in vivo or in a cell line. In vitro assays include assays that determine inhibition or activation of either the phosphorylation activity or ATPase activity of the activated protein kinase. Alternate in vitro assays quantitate the ability of the inhibitor to bind to the protein kinase. Compound binding may be measured by radiolabelling the compound prior to binding, isolating the inhibitor or activator/protein kinase complex and determining the amount of radiolabel bound. Alternatively, inhibitor or activator binding may be determined by running a competition experiment where new compounds are incubated with the protein kinase bound to known radioligands. Newer methods comprise fluorescence polarisation assays and surface plasmon resonance dependent techniques. […] The activity and modulation of activity is measured using a standard ATPgamma[^32P] assay as described earlier. […] The concentration of T308tide is 1 mM and the amount of PDK1 used is 200 ng. Reactions are carried out at room temperature. Reaction is started by addition of ATP-Mg mix and stopped with phosphoric acid after 30 min. Stopped reactions were spotted on to phosphocellulose paper (P81, Whatman) and washed. After drying, the radioactivity associated to the band was quantified.

SGK = molecular target: T2, SGK (Homo sapiens, UniProt O00141); assay: cell-free kinase activity assay; conditions: DMSO control set 100%
T2 sequence (O00141 1-431): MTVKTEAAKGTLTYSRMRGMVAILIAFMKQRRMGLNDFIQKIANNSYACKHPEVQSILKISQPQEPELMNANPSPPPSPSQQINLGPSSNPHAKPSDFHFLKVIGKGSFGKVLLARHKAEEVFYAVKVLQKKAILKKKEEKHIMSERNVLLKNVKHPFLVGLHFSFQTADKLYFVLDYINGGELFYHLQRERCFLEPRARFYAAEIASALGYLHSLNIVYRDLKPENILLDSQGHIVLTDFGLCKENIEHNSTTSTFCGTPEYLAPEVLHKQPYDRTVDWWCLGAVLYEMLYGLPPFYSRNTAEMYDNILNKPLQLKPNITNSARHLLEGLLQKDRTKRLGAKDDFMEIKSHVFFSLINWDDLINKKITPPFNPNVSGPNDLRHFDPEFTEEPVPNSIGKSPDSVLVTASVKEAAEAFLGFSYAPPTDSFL

PRK2 = PRK2 (Homo sapiens, UniProt Q16513); assay: cell-free kinase activity assay; conditions: DMSO control set 100%
S6K = S6K (Homo sapiens, UniProt P23443); assay: cell-free kinase activity assay; conditions: DMSO control set 100%
PKA = PKA (Homo sapiens, UniProt P17612); assay: cell-free kinase activity assay; conditions: DMSO control set 100%
PKBβ = PKBβ (Homo sapiens, UniProt P31751); assay: cell-free kinase activity assay; conditions: DMSO control set 100%
PKBβ, sequence (P31751 whole entry, species assumed): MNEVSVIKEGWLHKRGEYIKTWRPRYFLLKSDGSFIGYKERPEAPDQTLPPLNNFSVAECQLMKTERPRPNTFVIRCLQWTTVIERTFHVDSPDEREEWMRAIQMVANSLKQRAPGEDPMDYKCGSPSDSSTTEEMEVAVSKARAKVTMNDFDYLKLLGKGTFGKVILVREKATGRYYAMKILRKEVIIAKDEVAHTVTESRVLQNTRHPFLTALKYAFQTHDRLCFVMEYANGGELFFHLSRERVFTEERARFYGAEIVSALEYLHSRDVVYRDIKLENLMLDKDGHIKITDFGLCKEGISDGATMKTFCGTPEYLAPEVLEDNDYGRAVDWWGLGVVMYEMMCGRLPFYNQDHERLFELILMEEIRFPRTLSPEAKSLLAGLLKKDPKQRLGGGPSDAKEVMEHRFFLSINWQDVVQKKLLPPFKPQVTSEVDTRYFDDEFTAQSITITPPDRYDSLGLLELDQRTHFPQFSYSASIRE

S6K, sequence (P23443 whole entry): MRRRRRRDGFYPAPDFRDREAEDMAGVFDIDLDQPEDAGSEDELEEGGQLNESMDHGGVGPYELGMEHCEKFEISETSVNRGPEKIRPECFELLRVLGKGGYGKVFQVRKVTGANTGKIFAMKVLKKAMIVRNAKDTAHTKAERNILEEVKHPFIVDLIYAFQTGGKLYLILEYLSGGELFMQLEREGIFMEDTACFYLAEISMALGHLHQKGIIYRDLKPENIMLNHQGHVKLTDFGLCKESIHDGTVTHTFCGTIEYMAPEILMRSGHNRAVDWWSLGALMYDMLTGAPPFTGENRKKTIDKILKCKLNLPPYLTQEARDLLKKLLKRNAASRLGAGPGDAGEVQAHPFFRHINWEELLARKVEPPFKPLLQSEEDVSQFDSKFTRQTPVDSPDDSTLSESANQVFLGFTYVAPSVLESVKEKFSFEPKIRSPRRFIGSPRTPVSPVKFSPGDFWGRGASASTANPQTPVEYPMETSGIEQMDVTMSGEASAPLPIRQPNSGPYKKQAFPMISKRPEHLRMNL
PRK2, sequence (Q16513 whole entry, species assumed): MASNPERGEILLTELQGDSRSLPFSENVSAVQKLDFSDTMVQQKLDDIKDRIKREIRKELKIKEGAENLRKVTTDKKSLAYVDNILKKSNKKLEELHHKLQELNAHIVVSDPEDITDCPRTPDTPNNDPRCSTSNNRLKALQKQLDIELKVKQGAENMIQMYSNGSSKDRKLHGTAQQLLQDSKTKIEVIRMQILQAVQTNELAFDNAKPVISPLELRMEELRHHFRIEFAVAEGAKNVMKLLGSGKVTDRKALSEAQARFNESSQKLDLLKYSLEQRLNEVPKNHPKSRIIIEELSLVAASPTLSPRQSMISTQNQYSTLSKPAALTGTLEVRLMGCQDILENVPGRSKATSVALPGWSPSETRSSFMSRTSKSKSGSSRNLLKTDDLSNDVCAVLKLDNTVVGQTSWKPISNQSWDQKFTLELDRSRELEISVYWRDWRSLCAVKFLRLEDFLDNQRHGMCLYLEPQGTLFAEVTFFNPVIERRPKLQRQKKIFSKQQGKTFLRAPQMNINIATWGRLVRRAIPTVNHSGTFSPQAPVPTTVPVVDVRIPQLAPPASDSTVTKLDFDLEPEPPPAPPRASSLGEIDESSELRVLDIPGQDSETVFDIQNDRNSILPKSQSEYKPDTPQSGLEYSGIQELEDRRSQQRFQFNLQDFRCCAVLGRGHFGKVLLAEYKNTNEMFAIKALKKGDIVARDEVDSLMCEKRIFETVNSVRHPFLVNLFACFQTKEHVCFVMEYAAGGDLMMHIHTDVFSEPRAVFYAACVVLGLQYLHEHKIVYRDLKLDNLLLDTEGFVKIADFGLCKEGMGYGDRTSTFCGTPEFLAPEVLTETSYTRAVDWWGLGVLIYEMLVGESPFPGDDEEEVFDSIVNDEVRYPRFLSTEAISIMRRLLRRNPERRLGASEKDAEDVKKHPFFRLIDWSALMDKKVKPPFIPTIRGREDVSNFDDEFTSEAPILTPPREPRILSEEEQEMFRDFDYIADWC

SMILES	AC50 (PDK1)	max. activation of PDK1 (fold) (PDK1)	also measured
O=C(O)/C=C(\CCc1ccc(Cl)c(Cl)c1)c1ccccc1 [PS 131, (E)-5-(3,4-Dichlorophenyl)-3-phenylpent-2-enoic acid]	> 100 µM	2 fold	–
CCc1ccc(CC/C(=C/C(=O)O)c2ccccc2)cc1 [PS 130, (Z)-5-(4-Ethylphenyl)-3-phenylpent-2-enoic acid]	> 30 µM	1.4 fold	–
O=C(O)/C=C(\CCc1cccc(Cl)c1)c1ccccc1 [PS 88, (E)-5-(3-Chlorophenyl)-3-phenylpent-2-enoic acid]	> 100 µM	2 fold	–
Cc1ccc2oc(C(CC(=O)O)c3ccccc3)cc2c1 (centres unmarked) [PS 120, 3-(5-Methyl-2-benzofuranyl)-3-phenylpropanoic acid]	29.1 µM	2.7 fold	–
O=C(O)CC(c1ccccc1)c1cc2cc(Cl)ccc2o1 (centres unmarked) [PS 124, 3-(5-Chloro-2-benzofuranyl)-3-phenylpropanoic acid]	19 µM	2.9 fold	–
O=C(O)/C=C(\CCc1ccc(Cl)cc1Cl)c1ccccc1 [PS 135, (E)-5-(2,4-Dichlorophenyl)-3-phenylpent-2-enoic acid]	–	n.e.	AC50 PDK1 (μM) (PDK1): n.e.
O=C(O)/C=C(/COc1ccc(Cl)cc1)c1ccccc1 [PS 97, (E)-4-(4-Chlorophenoxy)-3-phenylbut-2-enoic acid]	22.8 µM	3.0 fold	–
O=C(O)CC(Cc1nc2c(Cl)cc(Cl)cc2[nH]1)c1ccc(Cl)cc1 (centres unmarked) [PS 171, 4-(5,7-Dichloro-2-benzimidazolyl)-3-(4-chlorophenyl)butanoic acid]	–	–	percent of catalytic activity of the Kinase in the presence of compound as compared to the solvent control (DMSO): SGK (SGK; 50 μM compound): no effect; remaining activity at 200 µM (SGK; 200 μM compound, read-out: percent of catalytic activity of the Kinase in the presence of compound as compared to the solvent control (DMSO): SGK): ~70%; activity at 200 µM (PDK1; 200 μM compound, DMSO control set 100%, read-out: percent of catalytic activity of the Kinase in the presence of compound as compared to the solvent control (DMSO): PDK1): ~200%; percent of catalytic activity of the Kinase in the presence of compound as compared to the solvent control (DMSO): PRK2 (PRK2; 50 μM compound): no effect; percent of catalytic activity of the Kinase in the presence of compound as compared to the solvent control (DMSO): PRK2 (PRK2; 200 μM compound): no effect; percent of catalytic activity of the Kinase in the presence of compound as compared to the solvent control (DMSO): S6K (S6K; 50 μM compound): weak inhib.; remaining activity at 200 µM (S6K; 200 μM compound, read-out: percent of catalytic activity of the Kinase in the presence of compound as compared to the solvent control (DMSO): S6K): ~50%; percent of catalytic activity of the Kinase in the presence of compound as compared to the solvent control (DMSO): PKA (PKA; 50 μM compound): no effect; remaining activity at 200 µM (PKA; 200 μM compound, read-out: percent of catalytic activity of the Kinase in the presence of compound as compared to the solvent control (DMSO): PKA): 80 to 90%; percent of catalytic activity of the Kinase in the presence of compound as compared to the solvent control (DMSO): PKBβ (PKBβ; 50 μM compound): no effect; remaining activity at 200 µM (PKBβ; 200 μM compound, read-out: percent of catalytic activity of the Kinase in the presence of compound as compared to the solvent control (DMSO): PKBβ): ~70%
Cc1ccc2oc(C(=CC(=O)O)c3ccccc3)cc2c1 (mixture of isomers) [PS 103, (E/Z)-3-(5-Methyl-2-benzofuranyl)-3-phenylacrylic acid]	41.3 µM	3.1 fold	–
O=C(O)C=C(c1ccccc1)c1cc2cc(Cl)ccc2o1 (mixture of isomers) [PS 101, (E/Z)-3-(5-Chloro-2-benzofuranyl)-3-phenylacrylic acid]	31.6 µM	3.2 fold	–
CCc1ccc(CC/C(=C\C(=O)O)c2ccccc2)cc1 [PS 129, (E)-5-(4-Ethylphenyl)-3-phenylpent-2-enoic acid]	> 100 µM	1.5 fold	–
O=C(O)/C=C(\c1ccccc1)c1cc2cc(Cl)ccc2s1 [PS 119, (E)-3-(5-Chloro-2-benzothiophenyl)-3-phenylacrylic acid]	13.2 µM	3.1 fold	–
O=C(O)/C=C(\COc1ccc(Cl)cc1)c1ccccc1 [PS 95, (Z)-4-(4-Chlorophenoxy)-3-phenylbut-2-enoic acid]	> 60 µM	2.7 fold	–

Second part, led by results:

AC50 (PDK1)	max. activation of PDK1 (fold) (PDK1)	SMILES	also measured
27.1 µM	3.1 fold	O=C(O)/C=C(\CCc1ccc2ccccc2c1)c1ccccc1 [PS 138, (E)-5-(2-Naphthalenyl)-3-phenylpent-2-enoic acid]	–
9.3 µM	3.7 fold	O=C(O)/C=C(/CCc1c[nH]c2ccccc12)c1ccccc1 [PS 159, (Z)-5-(1H-Indol-3-yl)-3-phenylpent-2-enoic acid]	–
41 µM	3.3 fold	O=C(O)/C=C(/CCc1ccc(F)cc1)c1ccccc1 [PS-T3, (Z)-5-(4-Fluorophenyl)-3-phenylpent-2-enoic acid]	–
34.6 µM	2.9 fold	O=C(O)/C=C(\CCc1c[nH]c2ccccc12)c1ccccc1 [PS 158, (E)-5-(1H-Indol-3-yl)-3-phenylpent-2-enoic acid]	–
4 µM	more than 4 fold	O=C(O)/C=C(/CCc1ccc2ccccc2c1)c1ccccc1 [PS-T4, (Z)-5-(2-Naphthalenyl)-3-phenylpent-2-enoic acid]	max. activation of PDK1 (fold) (PDK1; listed as T4): 4.2 fold
8 µM	3.4 fold	O=C(O)/C=C(/CCc1ccc(Cl)c(Cl)c1)c1ccccc1 [PS-T7, (Z)-5-(3,4-Dichlorophenyl)-3-phenylpent-2-enoic acid]	–
9.4 µM	2.2 fold	O=C(O)/C=C(/CCc1ccc(Cl)cc1Cl)c1ccccc1 [PS-T9, (Z)-5-(2,4-Dichlorophenyl)-3-phenylpent-2-enoic acid]	–
> 100 µM	2 fold	O=C(O)/C=C(\CCc1ccc(Br)cc1)c1ccccc1 [PS 137, (E)-5-(4-Bromophenyl)-3-phenylpent-2-enoic acid]	–
> 100 µM	1.3 fold	O=C(O)/C=C(\CCc1ccc(F)cc1)c1ccccc1 [PS 136, (E)-5-(4-Fluorophenyl)-3-phenylpent-2-enoic acid]	–
–	n.e.	O=C(O)/C=C(\CCc1ccc(C(F)(F)F)cc1)c1ccccc1 [PS 140, (E)-3-Phenyl-5-[4-(trifluoromethyl)phenyl]pent-2-enoic acid]	AC50 PDK1 (μM) (PDK1): n.e.
